Experimental data: patent publication US11590139B2, “Substituted aminopurine compounds, compositions thereof, and methods of treatment therewith” (Signal Pharmaceuticals, LLC, priority 2014, dated 2023)

Test system: Lox-IMVI melanoma cell line
Assay: Lox-IMVI anti-proliferative assay (growth inhibition, Cell Titer-Glo)
Type: cell-based, human
Conditions: Homo sapiens; Lox-IMVI anti-proliferative assay, IC50 activity level; read-out: Activity
Method in brief: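 Growth inhibition is assessed over 72 h in RPMI + 10% FBS at 0.2% DMSO, with ATP-based luminescence used as the viability measure. IC50 is fitted from normalized dose-response data.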

| Structure (SMILES) | IC50 [µM] |
| --- | --- |
| NC(=O)[C@H]1CC[C@@H](n2c(Nc3ccc(Cl)c(F)c3F)nc3cnc(N[C@H]4CCC[C@H](O)C4)nc32)CC1 [Example 463, (1R,4s)-4-(8-(4-chloro-2,3-difluorophenylamino)-2-((1S,3S)-3-hydroxycyclohexylamino)-9H-purin-9-yl)cyclohexanecarboxamide] | > 1 |
| NC(=O)[C@H]1CC[C@@H](n2c(Nc3c(F)cc(Cl)cc3Cl)nc3cnc(N[C@H]4CCC[C@H](O)C4)nc32)CC1 [Example 464, (1R,4s)-4-(8-(2,4-dichloro-6-fluorophenylamino)-2-((1S,3S)-3-hydroxycyclohexylamino)-9H-purin-9-yl)cyclohexanecarboxamide] | 0.5 to 1 |
| NC(=O)[C@H]1CC[C@@H](n2c(Nc3cc(F)c(Cl)cc3F)nc3cnc(N[C@H]4CCC[C@H](O)C4)nc32)CC1 [Example 465, (1R,4s)-4-(8-(4-chloro-2,5-difluorophenylamino)-2-((1S,3S)-3-hydroxycyclohexylamino)-9H-purin-9-yl)cyclohexanecarboxamide] | > 1 |
| NC(=O)[C@H]1CC[C@@H](n2c(Nc3c(Cl)cc(F)cc3Cl)nc3cnc(N[C@@H]4CCCC[C@H]4O)nc32)CC1 [Example 469, (1S,4s)-4-(8-(2,6-dichloro-4-fluorophenylamino)-2-((1R,2R)-2-hydroxycyclohexylamino)-9H-purin-9-yl)cyclohexanecarboxamide] | > 1 |
| NC(=O)[C@H]1CC[C@@H](n2c(Nc3c(F)cc(Cl)cc3Cl)nc3cnc(N[C@@H]4CCCC[C@H]4O)nc32)CC1 [Example 470, (1S,4s)-4-(8-(2,4-dichloro-6-fluorophenylamino)-2-((1R,2R)-2-hydroxycyclohexylamino)-9H-purin-9-yl)cyclohexanecarboxamide] | > 1 |
| C[C@]1(C(N)=O)CC[C@H](n2c(Nc3c(F)cc(Cl)cc3F)nc3cnc(NC4CCOCC4)nc32)CC1 [Example 473, (1r,4r)-4-(8-(4-chloro-2,6-difluorophenylamino)-2-(tetrahydro-2H-pyran-4-ylamino)-9H-purin-9-yl)-1-methylcyclohexanecarboxamide] | > 1 |
| C[C@]1(C(N)=O)CC[C@H](n2c(Nc3c(Cl)cc(C#N)cc3Cl)nc3cnc(NC4CCOCC4)nc32)CC1 [Example 475, (1r,4r)-4-(8-(2,6-dichloro-4-cyanophenylamino)-2-(tetrahydro-2H-pyran-4-ylamino)-9H-purin-9-yl)-1-methylcyclohexanecarboxamide] | 0.5 to 1 |
| C[C@]1(C(N)=O)CC[C@H](n2c(Nc3c(F)cc(F)cc3Cl)nc3cnc(NC4CCC(F)(F)CC4)nc32)CC1 [Example 477, (1r,4r)-4-(8-(2-chloro-4,6-difluorophenylamino)-2-(4,4-difluorocyclohexylamino)-9H-purin-9-yl)-1-methylcyclohexanecarboxamide] | > 1 |
| C[C@]1(C(N)=O)CC[C@H](n2c(Nc3c(F)cc(Cl)cc3Cl)nc3cnc(NC4CCC(F)(F)CC4)nc32)CC1 [Example 478, (1r,4r)-4-(8-(2,4-dichloro-6-fluorophenylamino)-2-(4,4-difluorocyclohexylamino)-9H-purin-9-yl)-1-methylcyclohexanecarboxamide] | > 1 |
| C[C@@H](CO)Nc1ncc2nc(Nc3c(Cl)cc(C(F)(F)F)cc3Cl)n([C@H]3CC[C@](C)(C(N)=O)CC3)c2n1 [Example 480, (1S,4r)-4-(8-(2,6-dichloro-4-(trifluoromethyl)phenylamino)-2-((S)-1-hydroxypropan-2-ylamino)-9H-purin-9-yl)-1-methylcyclohexanecarboxamide] | > 1 |
| C[C@]1(C(N)=O)CC[C@H](n2c(Nc3c(F)cc(C#N)cc3Cl)nc3cnc(NC4CCCC4)nc32)CC1 [Example 486, (1r,4r)-4-(8-(2-chloro-4-cyano-6-fluorophenylamino)-2-(cyclopentylamino)-9H-purin-9-yl)-1-methylcyclohexanecarboxamide] | 0.5 to 1 |
| C[C@]1(C(N)=O)CC[C@H](n2c(Nc3c(Cl)cc(C(F)(F)F)cc3Cl)nc3cnc(NC4CCCC4)nc32)CC1 [Example 488, (1r,4r)-4-(2-(cyclopentylamino)-8-(2,6-dichloro-4-(trifluoromethyl)phenylamino)-9H-purin-9-yl)-1-methylcyclohexanecarboxamide] | > 1 |

Continued, values first:

| IC50 [µM] | Structure (SMILES) |
| --- | --- |
| > 1 | NC(=O)[C@H]1CC[C@@H](n2c(Nc3c(Cl)cc(Cl)cc3Cl)nc3cnc(N[C@H]4CCC[C@H](O)C4)nc32)CC1 [Example 461, (1R,4s)-4-(2-((1S,3S)-3-hydroxycyclohexylamino)-8-(2,4,6-trichlorophenylamino)-9H-purin-9-yl)cyclohexanecarboxamide] |
| > 1 | NC(=O)[C@H]1CC[C@@H](n2c(Nc3c(Cl)cc(F)cc3Cl)nc3cnc(N[C@H]4CCC[C@H](O)C4)nc32)CC1 [Example 462, (1R,4s)-4-(8-(2,6-dichloro-4-fluorophenylamino)-2-((1S,3S)-3-hydroxycyclohexylamino)-9H-purin-9-yl)cyclohexanecarboxamide] |
| > 1 | NC(=O)[C@H]1CC[C@@H](n2c(Nc3c(F)cc(F)cc3Cl)nc3cnc(N[C@@H]4CCCC[C@H]4O)nc32)CC1 [Example 466, (1S,4s)-4-(8-(2-chloro-4,6-difluorophenylamino)-2-((1R,2R)-2-hydroxycyclohexylamino)-9H-purin-9-yl)cyclohexanecarboxamide] |
| > 1 | NC(=O)[C@H]1CC[C@@H](n2c(Nc3c(F)cc(Cl)cc3F)nc3cnc(N[C@@H]4CCCC[C@H]4O)nc32)CC1 [Example 467, (1S,4s)-4-(8-(4-chloro-2,6-difluorophenylamino)-2-((1R,2R)-2-hydroxycyclohexylamino)-9H-purin-9-yl)cyclohexanecarboxamide] |
| > 1 | NC(=O)[C@H]1CC[C@@H](n2c(Nc3c(Cl)cc(Cl)cc3Cl)nc3cnc(N[C@@H]4CCCC[C@H]4O)nc32)CC1 [Example 468, (1S,4s)-4-(2-((1R,2R)-2-hydroxycyclohexylamino)-8-(2,4,6-trichlorophenylamino)-9H-purin-9-yl)cyclohexanecarboxamide] |
| > 1 | NC(=O)[C@H]1CC[C@@H](n2c(Nc3c(F)cc(Cl)cc3Cl)nc3cnc(N[C@H](CO)C(F)(F)F)nc32)CC1 [Example 471, (1S,4s)-4-(8-(2,4-dichloro-6-fluorophenylamino)-2-((R)-1,1,1-trifluoro-3-hydroxypropan-2-ylamino)-9H-purin-9-yl)cyclohexanecarboxamide] |
| > 1 | N#Cc1cc(Cl)c(Nc2nc3cnc(N[C@H](CO)C(F)(F)F)nc3n2[C@H]2CC[C@@H](C(N)=O)CC2)c(Cl)c1 [Example 472, (1S,4s)-4-(8-(2,6-dichloro-4-cyanophenylamino)-2-((R)-1,1,1-trifluoro-3-hydroxypropan-2-ylamino)-9H-purin-9-yl)cyclohexanecarboxamide] |
| > 1 | C[C@]1(C(N)=O)CC[C@H](n2c(Nc3c(Cl)cc(Cl)cc3Cl)nc3cnc(NC4CCOCC4)nc32)CC1 [Example 474, (1r,4r)-1-methyl-4-(2-(tetrahydro-2H-pyran-4-ylamino)-8-(2,4,6-trichlorophenylamino)-9H-purin-9-yl)cyclohexanecarboxamide] |
| > 1 | C[C@]1(C(N)=O)CC[C@H](n2c(Nc3c(Cl)cc(F)cc3Cl)nc3cnc(NC4CCC(F)(F)CC4)nc32)CC1 [Example 476, (1r,4r)-4-(8-(2,6-dichloro-4-fluorophenylamino)-2-(4,4-difluorocyclohexylamino)-9H-purin-9-yl)-1-methylcyclohexanecarboxamide] |
| > 1 | C[C@]1(C(N)=O)CC[C@H](n2c(Nc3c(Cl)cc(C#N)cc3Cl)nc3cnc(NC4CCC(F)(F)CC4)nc32)CC1 [Example 479, (1r,4r)-4-(8-(2,6-dichloro-4-cyanophenylamino)-2-(4,4-difluorocyclohexylamino)-9H-purin-9-yl)-1-methylcyclohexanecarboxamide] |
| > 1 | C[C@@H](CO)Nc1ncc2nc(Nc3c(Cl)cc(Cl)cc3Cl)n([C@H]3CC[C@](C)(C(N)=O)CC3)c2n1 [Example 481, (1S,4r)-4-(2-((S)-1-hydroxypropan-2-ylamino)-8-(2,4,6-trichlorophenylamino)-9H-purin-9-yl)-1-methylcyclohexanecarboxamide] |
| > 1 | CC(C)(CO)CNc1ncc2nc(Nc3c(Cl)cc(C#N)cc3Cl)n([C@H]3CC[C@@H](C(N)=O)CC3)c2n1 [Example 482, (1s,4s)-4-(8-(2,6-dichloro-4-cyanophenylamino)-2-(3-hydroxy-2,2-dimethylpropylamino)-9H-purin-9-yl)cyclohexanecarboxamide] |
| > 1 | NC(=O)[C@H]1CC[C@@H](n2c(Nc3c(Cl)cc(Cl)cc3Cl)nc3cnc(N[C@@H]4CCCC[C@@H]4O)nc32)CC1 [Example 483, (1S,4s)-4-(2-((1R,2S)-2-hydroxycyclohexylamino)-8-(2,4,6-trichlorophenylamino)-9H-purin-9-yl)cyclohexanecarboxamide] |
| > 1 | C[C@]1(C(N)=O)CC[C@H](n2c(Nc3c(F)cc(Cl)cc3Cl)nc3cnc(N[C@@H]4CCC[C@H](O)C4)nc32)CC1 [Example 484, (1R,4r)-4-(8-(2,4-dichloro-6-fluorophenylamino)-2-((1R,3S)-3-hydroxycyclohexylamino)-9H-purin-9-yl)-1-methylcyclohexanecarboxamide] |
| 0.5 to 1 | C[C@]1(C(N)=O)CC[C@H](n2c(Nc3c(Cl)cc(C#N)cc3Cl)nc3cnc(NC4CCCC4)nc32)CC1 [Example 485, (1r,4r)-4-(2-(cyclopentylamino)-8-(2,6-dichloro-4-cyanophenylamino)-9H-purin-9-yl)-1-methylcyclohexanecarboxamide] |
| > 1 | C[C@]1(C(N)=O)CC[C@H](n2c(Nc3c(F)cc(C#N)cc3F)nc3cnc(NC4CCCC4)nc32)CC1 [Example 487, (1r,4r)-4-(8-(4-cyano-2,6-difluorophenylamino)-2-(cyclopentylamino)-9H-purin-9-yl)-1-methylcyclohexanecarboxamide] |
